Test results as given in ChEMBL document CHEMBL1944509, “Methyl-monofluorination of ibuprofen selectively increases its inhibitory activity toward cyclooxygenase-1 leading to enhanced analgesic activity and reduced gastric damage in vivo” (Bioorg Med Chem Lett, 2011).
Active and inactive are the calls of the source. The calls are words filed in the database; no cut-off is given here.

Legend:
[1] = target: T1, Prostaglandin G/H synthase 2 (Homo sapiens) (UniProt P35354); experiment: Inhibition of human recombinant COX2 up to 1 mM by EIA
T1 sequence (whole entry): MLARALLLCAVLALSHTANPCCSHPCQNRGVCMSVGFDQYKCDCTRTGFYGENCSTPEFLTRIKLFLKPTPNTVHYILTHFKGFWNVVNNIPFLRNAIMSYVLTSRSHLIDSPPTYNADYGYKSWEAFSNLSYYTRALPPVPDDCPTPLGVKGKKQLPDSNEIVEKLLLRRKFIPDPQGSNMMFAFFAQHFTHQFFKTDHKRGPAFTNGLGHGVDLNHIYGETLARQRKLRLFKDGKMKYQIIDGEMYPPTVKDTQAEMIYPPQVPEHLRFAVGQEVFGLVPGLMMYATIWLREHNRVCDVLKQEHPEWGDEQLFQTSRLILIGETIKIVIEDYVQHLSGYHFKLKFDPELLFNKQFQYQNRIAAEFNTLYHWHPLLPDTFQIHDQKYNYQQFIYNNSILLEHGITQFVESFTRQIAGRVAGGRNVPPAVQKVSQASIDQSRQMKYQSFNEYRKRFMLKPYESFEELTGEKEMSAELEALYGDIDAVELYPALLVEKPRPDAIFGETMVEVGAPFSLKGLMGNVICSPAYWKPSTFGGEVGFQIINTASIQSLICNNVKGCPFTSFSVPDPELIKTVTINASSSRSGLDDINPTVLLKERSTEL

[2] = target: T2, Prostaglandin G/H synthase 1 (Ovis aries) (UniProt P05979); experiment: Inhibition of ovine COX1 up to 1 mM by EIA
T2 sequence (whole entry): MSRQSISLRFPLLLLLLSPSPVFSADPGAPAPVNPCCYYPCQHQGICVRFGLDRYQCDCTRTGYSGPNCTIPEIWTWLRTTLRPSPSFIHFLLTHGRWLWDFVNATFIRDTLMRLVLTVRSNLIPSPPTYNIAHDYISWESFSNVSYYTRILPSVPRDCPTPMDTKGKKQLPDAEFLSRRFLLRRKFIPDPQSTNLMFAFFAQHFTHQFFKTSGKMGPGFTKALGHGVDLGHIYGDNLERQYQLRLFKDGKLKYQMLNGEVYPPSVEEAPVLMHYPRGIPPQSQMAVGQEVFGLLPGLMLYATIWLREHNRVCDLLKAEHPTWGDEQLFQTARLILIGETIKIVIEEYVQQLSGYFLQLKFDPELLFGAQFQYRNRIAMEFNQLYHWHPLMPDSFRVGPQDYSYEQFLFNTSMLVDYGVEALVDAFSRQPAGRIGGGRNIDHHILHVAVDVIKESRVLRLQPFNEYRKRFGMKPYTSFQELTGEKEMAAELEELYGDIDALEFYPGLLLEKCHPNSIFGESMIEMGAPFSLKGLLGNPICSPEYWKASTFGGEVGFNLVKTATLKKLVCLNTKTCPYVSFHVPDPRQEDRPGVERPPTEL

- inhibition [1]: inactive
- inhibition [2]: inactive
Structure (SMILES): CC(C)Cc1ccc([C@@H](CF)C(=O)O)cc1
